Laboratory results: patent US20210317102A1, “INHIBITORS OF INTEGRATED STRESS RESPONSE PATHWAY” (Praxis Biotech LLC, priority 2019, published 2021)

Experiments:
male Balb/c mice = assay: Fasting-induced muscle atrophy; type: in vivo; conditions: fasted mice, 10 mg/kg oral, compared to vehicle-treated fasted mice
Protocol: Wild type eight-weeks-old male Balb/c mice obtained from the vivarium Fundación Ciencia & Vida Chile (Santiago, Chile) are used. Mice are housed in independent plastic cages in a room maintained at 25° C. with a 12-h:12-h light:dark cycle.
Twenty-four hours before and during the 2 days of fasted procedures, animals receive oral administration via feeding tubes (15 gauge) of vehicle (50% Polyethylene glycol 400 (Sigma-Aldrich P3265) in distilled water or 10 mg/kg of test compound formulated in vehicle solution.
After 2 days of fasting the animals are sacrificed and muscles are removed from both hindlimbs. Mice with feed and water ad libitum are used as control. […]
Upon collection, muscles are immediately frozen in liquid nitrogen and then stored at −80° C. […] Protein concentration in supernatants is determined using BCA Protein Assay Kit (Pierce). […]
Puromycin (12D10) (Merck Millipore), MuRF-1 (Santa Cruz Biotechnology) and 3-actin (Sigma-Aldrich) antibodies are used as primary antibodies. […] Quantification of protein bands is done by densitometry using ImageJ software.
Expression of the muscle atrophy marker MuRF-1 in quadriceps from fed or fasted mice treated with vehicle or compound 11 is shown in FIG. 1D. The levels were normalized to β-actin expression and fold change was calculated as the level relative to MuRF-1 levels from control mice (Fed) which correspond to 1.

[1] = system: Chinese hamster ovary (CHO) cells; assay: Protein synthesis assay (puromycin incorporation, western blot); type: cell-based; conditions: 2 hours, media alone = 100%; for activity at 1 µM: Cricetulus griseus, unstressed CHO cells (without Tg), 1 μM test compound, read-out: % Protein synthesis relative to untreated (1 μM test compound); for % Recovery of protein synthesis (1 μM test compound): stressed CHO cells, 300 nM Tg plus 1 μM test compound, Tg alone = 0%
Protocol: Chinese hamster ovary (CHO) cells were maintained at 37° C. and 5% CO2 in Dulbecco's Modified Eagle's Media (DMEM) supplemented with 10% fetal bovine serum, 2 mM L-glutamine, 100 U/ml penicillin, and 100 μg/ml streptomycin. After reaching 80% of confluence, cells were detached and seeded on 6 well plates in complete media, allowed to recover overnight and treated for 2 hours with 1 μM of the test compound (to assess protein synthesis levels in unstressed condition), or for 2 hours with 300 nM Tg in the presence of 1 μM of the test compound (to assess the recovery of protein synthesis in a stressed condition). Cells with Tg alone were used as controls.
After the 2 hours treatments, media were replaced by adding 10 μg/ml puromycin (Sigma Aldrich #P8833) in complete media for 30 min. Media were removed and cells were lysed with SDS-PAGE lysis buffer. Lysates were transferred to 1.5 ml tubes and sonicated for 3 min and total protein amount were quantified using BCA Protein Assay Kit (Pierce). Equal amount of protein (30 μg) was loaded on SDS-PAGE gels. Proteins were transferred onto […] PVDF membranes (BioRad) and probed with primary antibodies diluted in Tris-buffered saline supplemented with 0.1% Tween 20 (Merck #S6996184 505) and 3% bovine serum albumin (Rockland #BSA-50).
Puromycin (12D10) (Merck #MABE343) and j-actin (Sigma Aldrich #A5441) antibodies were used as primary antibody. A HRP-conjugated secondary antibody (Rockland) was employed to detect immune-reactive bands using enhanced chemiluminescence (ECL Western Blotting Substrate, Pierce). Quantification of protein bands was done by densitometry using ImageJ software.
Percent increase of protein synthesis in unstressed cells (without Tg treatment) in the presence of media alone or certain test compounds is shown in Table 3. The percentage levels were normalized to the media alone condition, which correspond to 100% protein synthesis.
Percent recovery of protein synthesis in stressed cells (with Tg treatment) due to the test compounds at 1 μM is also shown in Table 3. The levels were normalized to the media alone and Tg alone conditions, which correspond to 100% and 0% respectively.

[2] = system: ATF4 expression, HEK293T cells carrying the ATF4 luciferase reporter; assay: ATF4 expression inhibition assay (ATF4 luciferase reporter); type: cell-based; conditions: Homo sapiens, HEK-293T, 100 nM thapsigargin, 3 hours
Protocol: The ATF4 reporter was prepared by fusing the human full length 5′UTR of ATF4 (NCBI Accession No. BC022088.2) upstream of the firefly luciferase coding sequence lacking the initiator methionine. The fused sequence was cloned into pLenti-EFla-C-Myc-DDK-IRES-Puro cloning vector (Origen #PS100085) using standard methods. Virus production was carried out by using Lenti-X™ Packaging Single Shots Protocol (Clonetech #631276). Viral particles were used to transduce HEK293T cells (ATCC #CRL-3216, ATCC Manassas, Va.), which were subsequently selected with puromycin to generate stable cell line. Cells were maintained at 37° C. and 5% CO2 in DMEM-F12 (Hyclone #SH30023.02) supplemented with 10% heat-inactivated fetal bovine serum (Gibco #16000-044), 2 mM L-glutamine (Gibco #25030-081), 100 U/ml penicillin, and 100 μg/ml streptomycin (Gibco #^15140-122).
HEK293T cells carrying the ATF4 luciferase reporter were plated on 96-well plates (Nunc) at 10,000 cells per well. Cells were treated two days after seeding with 100 nM thapsigargin (Tg) (Sigma-Aldrich #T9033) in the presence of different concentrations of selected compounds ranging from 1 nM to 10 μM. Cells without treatment or cells treated with Tg alone were used as controls. Assay plates containing cells were incubated for 3 hours at 37° C.
Luciferase reactions were performed using Luciferase Assay System (Promega #E1501) as specified by the manufacturer. Luminescence was read with an integration time of 1 s and a gain of 110 using a Cytation-5 multi-mode microplate reader (BioTek). Relative luminescence units were normalized to Tg treatment (0% inhibition) and untreated cells (100% inhibition) and the percentage of ATF4 inhibition was calculated.
Accordingly, inhibition of ATF4 expression as a result of the test compound indicates suppression of the ISR pathway.

Row | Compound | Expression of the muscle atrophy marker MuRF-1 in quadriceps (male Balb/c mice) | activity at 1 µM [1] [%] | % Recovery of protein synthesis (1 μM test compound) [1] [%] | IC50 [2] [nM]
1 | O=C(COc1ccc(Cl)c(F)c1)N[C@H]1CC[C@H](CNC(=O)c2cc3cc(Cl)ccc3o2)CC1 [Compound 11, trans-5-chloro-N-((4-(2-(4-chloro-3-fluorophenoxy)acetamido)cyclohexyl)methyl)benzofuran-2-carboxamide] | reduction of MuRF-1 expression | 187 | 298.9 | 0.82
2 | CCN1C[C@@H](C(=O)N[C@H]2CC[C@H](NC(=O)COc3ccc(Cl)cc3)CC2)Oc2ccc(Cl)cc21 [Compound 89, trans-(S)-6-chloro-N-(4-(2-(4-chlorophenoxy)acetamido)cyclohexyl)-4-ethyl-3,4-dihydro-2H-benzo[b] [1,4]oxazine-2-carboxamide] |  | 134 | 21.5 | < 1000
3 | COc1cc(Cl)ccc1OCC(=O)N[C@H]1CC[C@H](NC(=O)COc2ccc(Cl)cc2)CC1 [Compound 90, trans-2-(4-chloro-2-methoxyphenoxy)-N-(4-(2-(4-chlorophenoxy)acetamido)cyclohexyl)acetamide] |  | 116 |  | 61.5
4 | Cc1cc(Cl)ccc1OCC(=O)N[C@H]1CC[C@H](NC(=O)COc2ccc(Cl)cc2)CC1 [Compound 91, trans-2-(4-chloro-2-methylphenoxy)-N-(4-(2-(4-chlorophenoxy)acetamido)cyclohexyl)acetamide] |  | 94.8 |  | 28.7
5 | NC(=O)c1cc(Cl)ccc1OCC(=O)N[C@H]1CC[C@H](NC(=O)COc2ccc(Cl)cc2)CC1 [Compound 92] |  | 79.7 |  | 52.2
6 | O=C(NC[C@H]1CC[C@H](NC(=O)COc2ccc(Cl)cc2)CC1)Nc1ccc(Cl)cc1 [Compound 93, trans-2-(4-chlorophenoxy)-N-(4-((3-(4-chlorophenyl)ureido)methyl)cyclohexyl)acetamide] |  | 88 | 69.1 | 3.88
7 | O=C(COc1ccc(Cl)cc1)N[C@H]1CC[C@H](NC(=O)C2CNc3ccc(Cl)cc3O2)CC1 (stereo partly drawn) [Compound 94, trans-7-chloro-N-(4-(2-(4-chlorophenoxy)acetamido)cyclohexyl)-3,4-dihydro-2H-benzo[b] [1,4]oxazine-2-carboxamide] |  | 103 | 58.4 | 35.8
8 | O=C(COc1ccc(Cl)c(F)c1)NN1CCC(CNC(=O)c2cc3cc(Cl)ccc3o2)CC1 [Compound 95, 5-chloro-N-((1-(2-(4-chloro-3-fluorophenoxy)acetamido)piperidin-4-yl)methyl)benzofuran-2-carboxamide] |  | 191 | 133.4 | 2.9
9 | O=C(NN1CCC(CNC(=O)c2cc3cc(Cl)ccc3o2)CC1)c1ccc2cc(Cl)ccc2n1 [Compound 96, 6-chloro-N-(4-((5-chlorobenzofuran-2-carboxamido)methyl)piperidin-1-yl)quinoline-2-carboxamide] |  | 258 |  | 1.05
10 | O=C(NCC1CCN(NC(=O)c2cc3cc(Cl)ccc3o2)CC1)c1cc2cc(Cl)ccc2o1 [Compound 97, 5-chloro-N-(4-((5-chlorobenzofuran-2-carboxamido)methyl)piperidin-1-yl)benzofuran-2-carboxamide] |  | 211 | 249.6 | 0.59
11 | O=C(COc1ccc(Cl)c(F)c1)NN1CCC(CNC(=O)c2ccc(Cl)cn2)CC1 [Compound 98, 5-chloro-N-((1-(2-(4-chloro-3-fluorophenoxy)acetamido)piperidin-4-yl)methyl)picolinamide] |  | -24.9 | 124.5 | 30.4
12 | O=C(COc1ccc(Cl)cc1)NN1CCC(CNC(=O)Nc2ccc(Cl)cc2)CC1 [Compound 99, 2-(4-chlorophenoxy)-N-(4-((3-(4-chlorophenyl)ureido)methyl)piperidin-1-yl)acetamide] |  | -42 | 122.3 | 14.5
